{"source": "patent EP1973398B1", "about": "“USE OF INOSITOL-TRIPYROPHOSPHATE IN TREATING TUMORS MEDIATED BY ANGIOGENESIS” (NormOxys, Inc., priority 2006, dated 2007)", "key": {"[1]": {"target": "T1, hemoglobin (Homo sapiens, UniProt P68871)", "T1 sequence (P69905 2-142 partner limits assumed)": "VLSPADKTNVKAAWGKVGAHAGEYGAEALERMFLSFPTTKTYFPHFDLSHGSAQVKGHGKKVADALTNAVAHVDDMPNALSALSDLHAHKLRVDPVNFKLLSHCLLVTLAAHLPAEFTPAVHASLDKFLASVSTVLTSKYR", "T1 sequence (P68871 2-147 limits assumed)": "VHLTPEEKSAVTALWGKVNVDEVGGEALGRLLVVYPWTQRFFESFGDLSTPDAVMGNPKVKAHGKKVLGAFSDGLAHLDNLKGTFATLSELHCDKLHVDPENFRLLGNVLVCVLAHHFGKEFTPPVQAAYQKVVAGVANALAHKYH", "conditions": "relative to DPG; cited from earlier work"}, "[2]": {"target": "T1, hemoglobin", "conditions": "pH 7.4, 37 degrees C.; cited from earlier work"}, "[3]": {"target": "murine hemoglobin (Mus musculus, UniProt P01942+P02088)", "sequence (P01942 2-142 limits assumed)": "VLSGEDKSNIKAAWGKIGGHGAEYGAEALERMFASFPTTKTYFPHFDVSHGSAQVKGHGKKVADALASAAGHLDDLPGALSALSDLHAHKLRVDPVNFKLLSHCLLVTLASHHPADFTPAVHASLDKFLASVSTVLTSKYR", "sequence (P02088 2-147 limits assumed)": "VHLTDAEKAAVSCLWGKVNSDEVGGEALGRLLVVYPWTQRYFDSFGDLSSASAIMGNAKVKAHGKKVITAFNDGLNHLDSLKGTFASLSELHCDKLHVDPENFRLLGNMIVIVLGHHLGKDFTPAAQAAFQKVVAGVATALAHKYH", "experiment": "In vitro P50 shift, mixtures of hemoglobin and ITPP, HEMOX analyzer", "format": "biochemical", "conditions": "with murine hemoglobin", "method": "ITPP was tested for its ability to induce a decrease of the O2-affinity of hemoglobin measured as a shift of the P50 value (P50 at 50% saturation of hemoglobin). With murine hemoglobin and whole blood, P50 shifts to higher PO2 of up to 250% with hemoglobin and up to 40% with whole blood were observed.\nFor the in vitro experiments ITPP was dissolved in deionized water, pH was adjusted at pH 7 and, for incubation with whole blood, the osmolality of the ITPP solutions was adjusted with glucose to 270-297 mOsM. Mixtures of hemoglobin and ITPP were measured with a HEMOX analyzer (PD Marketing, London) immediately. Red blood cells were incubated with ITPP for 1 hour at 37[deg.]C. Following incubation, the cells were washed 3 times with Bis-Tris-buffer (PH=7.0) and then used for P50 measurement."}, "[4]": {"system": "whole blood", "experiment": "In vitro P50 shift, whole blood / red blood cells incubated with ITPP", "format": "cell-based, murine"}, "[5]": {"system": "murine circulating red blood cells", "experiment": "Right shift of the O2-hemoglobin dissociation curve in mice, ITPP orally in drinking water", "format": "in vivo, C57BL/6 mice", "method": "ITPP was dissolved in drinking water at a 20g/L-concentration (= 27mM, pH ~7.0.) and offered for drinking ad libitum.\nTwelve (12) C57BL/6 mice were fed the ITPP-solution (20g/L-concentration = 27mM, pH -7.0) for 4 days (up to 25 ml per 24 hrs). Three (3) control mice drank pure water, and four (4) control mice a solution of myoinositol hexaphosphate (IHP) (same concentration and pH as ITPP). Blood was collected from all mice on day 0 (before treatment started), and on days 1, 2, 4, 6, 7, 8, 10, 11 and 12 (after treatment had started), in order to measure P50 values."}, "[6]": {"experiment": "Tolerability, serum ions and blood counts in mice after oral ITPP", "format": "in vivo, C57BL/6 mice", "method": "Three (3) control mice drank pure water, and four (4) control mice a solution of myoinositol hexaphosphate (IHP) (same concentration and pH as ITPP).\nFigure 3 contains the mean values and SD for the serum concentration of sodium, potassium and calcium obtained on day 0, 7 and 11 after start drinking ITPP (4 mice), IHP (3 mice) or water (3 mice).\nBlood counts were measured from all mice, on day 0, 7 and 11."}, "[7]": {"system": "circulating red blood cells", "experiment": "Right shift of the ODC in mice, ITPP injected intraperitoneally", "format": "in vivo", "conditions": "intraperitoneal, pH 7, 200µl, 45-150 mM (0.17-0.88 g/kg body weight)", "method": "(§1) When ITPP (pH 7, 200µl) was injected intraperitoneally in mice, the P50 values of circulating red blood cells were shifted up to 23%. […] The level of ions, such as sodium, potassium and calcium were normal after ip injection. Six (6) mice were each injected intraperitoneally with 45-150 mM (= 0.17-0.88 g/kg body weight) of ITPP."}, "[8]": {"experiment": "Tolerability and serum ions in mice after intraperitoneal ITPP", "format": "in vivo", "method": "as §1"}, "[9]": {"experiment": "Right shift of P50 in piglets, ITPP injected intravenously", "format": "in vivo", "method": "ITPP was also injected intravenously (IV) in piglets.\n(§2) Based upon this observation, a CaCl2 (equimolar to ITPP) solution was injected with the ITPP solution, so that the dissociated phosphate groups of ITPP were saturated. None of the side effects observed previously occurred. […] The level of the other ions sodium and potassium was unchanged after IV injection of ITPP in piglets."}, "[10]": {"experiment": "Serum ion levels in piglets after intravenous ITPP", "format": "in vivo", "conditions": "for Ca^2+ conc.: piglet's circulation blood", "method": "In order to check possible side effects of ITPP the level of calcium in the serum of the injected piglet was determined. A strong drop in the Ca^2+ concentration in the animal's blood immediately after infusion indicated the possibility that ITPP, with 3 dissociated phosphate groups binds Ca^2+, reducing thus its availability as free ion in the blood. One day after infusion the concentration of Ca^2+ in the piglets' blood was restored to the normal value. Table 1: Ca2+ concentration in the piglet's circulation blood\nas §2"}, "[11]": {"system": "VEGF mRNA", "experiment": "VEGF mRNA by RT-PCR in Lewis Lung carcinoma tumors of mice drinking ITPP", "format": "in vivo, C57BL/6 mice", "conditions": "LLC tumors, mice having received ITPP 20g/L orally, day 9, versus controls; quantification of gel assays", "method": "ITPP, when administered orally, intravenously, or intraperitoneally, inhibits angiogenesis in growing tumors by enhancing PO2 in the forming tumors. […] All animals received then 1x10^6 Lewis Lung carcinoma (LLC) cells, injected in the dorsal cavity. At different time points, the VEGF mRNA were assayed by RT-PCR in the tumors growing in both groups of mice.\nThere was a difference in the level of mRNA of the VEGF gene in both groups. […] The RT-PCR agarose gel assay of VEGF mRNAs from tumor tissue taken from 2 mice each on day 15 after inoculation of LLC cells (track 1: controls, track 2: ITPP treated animals) and day 30 after inoculation (track 3: control animals, track 4: ITPP treated animals).\nQuantification of the gel assays indicated a reduction by a factor of 10,000 of the amount of VEGF mRNAs detected in the tumors of animals having received ITPP, at day 9 and then, while differences remain between treated and untreated animals, they tend to decrease."}}}
{"smiles": "O=P(O)(O)O[C@H]1[C@H](OP(=O)(O)O)[C@@H](OP(=O)(O)O)[C@H](OP(=O)(O)O)[C@@H](OP(=O)(O)O)[C@H]1OP(=O)(O)O", "note": "[IHP, inositol hexaphosphate]", "values": [{"measurement": "higher affinity to hemoglobin than DPG", "setting": "[1]", "value": 1000, "unit": "fold"}, {"measurement": "P50 of hemoglobin", "setting": "[2]", "value": "≤ 96.4 mm, Hg"}]}
{"smiles": "O=P1(O)OC2C3OP(=O)(O)OP(=O)(O)OC3C3OP(=O)(O)OP(=O)(O)OC3C2OP(=O)(O)O1", "note": "(stereo not drawn) [ITPP, inositol-tripyrophosphate]", "values": [{"measurement": "P50 shifts to higher PO2", "setting": "[3]", "value": "up to 250%"}, {"measurement": "lysis of the red blood cells", "setting": "[4]; in vitro", "value": "never occurred"}, {"measurement": "P50 shifts to higher PO2", "setting": "[4]; with murine whole blood", "value": "up to 40%"}, {"measurement": "P50 values after 12 days", "setting": "[5]; ingestion stopped on day 4", "value": "back to control values"}, {"measurement": "right shifts of P50", "setting": "[5]; mice, oral application, 27 mM", "value": "up to 31%"}, {"measurement": "time lag before the maximum shift is attained", "setting": "[5]; mice, oral, 27 mM", "value": "approximately 48 hrs"}, {"measurement": "basal value of the red blood cell count", "setting": "[6]; 12 days after ingestion of ITPP, once ΔP50 becomes 0%", "value": "restored"}, {"measurement": "toxicity", "setting": "[6]; administered orally", "value": "little or no toxicity"}, {"measurement": "number of white blood cells", "setting": "[6]; blood from mice in different groups, day 0, 7 and 11", "value": "no significant differences"}, {"measurement": "number of red blood cells", "setting": "[6]; mice having ingested ITPP, blood counts day 0, 7 and 11", "value": "reduced"}, {"measurement": "acceptance / harm to the animals", "setting": "[6]; mice, ITPP-solution 20g/L (27mM) in drinking water for 4 days", "value": "neither rejected by the mice, nor harmful to the animals"}, {"measurement": "level of ions, such as sodium and potassium and calcium", "setting": "[6]; mice, after oral application, serum, day 0, 7 and 11", "value": "normal"}, {"measurement": "P50 values of circulating red blood cells shifted", "setting": "[7]", "value": "up to 23%"}, {"measurement": "concentration well tolerated by mice", "setting": "[8]; intraperitoneal injection", "value": "≤ 150000", "unit": "µM"}, {"measurement": "level of ions, such as sodium, potassium and calcium", "setting": "[8]; mice, after ip injection", "value": "normal"}, {"measurement": "P50 shift", "setting": "[9]; IV, CaCl2 solution (equimolar to ITPP) injected with the ITPP solution", "value": "approximately 20 % of the basal value"}, {"measurement": "shift of P50", "setting": "[9]; intravenous", "value": "right shift of P50 was observed"}, {"measurement": "Ca^2+ conc.", "setting": "[10]; 10 min after completion of injection (before injection 2.38)", "value": 1.73, "unit": "mmol/L"}, {"measurement": "Ca^2+ conc.", "setting": "[10]; 24 hrs after injection (before injection 2.38)", "value": 2.36, "unit": "mmol/L"}, {"measurement": "level of calcium", "setting": "[10]; piglets, IV, CaCl2 (equimolar to ITPP) injected with ITPP", "value": "remained constant"}, {"measurement": "level of the other ions sodium and potassium", "setting": "[10]; piglets, after IV injection of ITPP", "value": "unchanged"}, {"measurement": "reduction of the amount of VEGF mRNAs detected in the tumors", "setting": "[11]", "value": "10,000 factor"}]}
